Experimental data taken from publication PMC11190268, “Enhancing structural diversity through chemical engineering of Ambrosia tenuifolia extract for novel anti-glioblastoma compounds” (Scientific Reports, 2024).
Like-named read-outs stand apart in the source and are kept apart here.

Experiments:
Type in all cases: cell-based, human
T98G cells [1] = assay: MTT cell viability assay in T98G glioblastoma cells; conditions: for IC50: Homo sapiens; for IC50 / percentage of cell viability: T98G cells, MTT; for anti-glioblastoma activity (in words): T98G cultures; for percentage of cell viability: 40 or 80 μM
Protocol: (§1) T98G cells were isolated from the brain of a glioblastoma multiforme patient (ATCC, cat. No. CRl-1690, RRUD: CVCL-0556, Manassas, VA, USA). HEK 293 cells are derived from human embryonic kidney cells (ATCC Cat# CRL-1573, RRID: CVCL_0045). Both cell lines were grown in Dulbecco’s modified Eagle’s medium (DMEM, Invitrogen) supplemented with 10% fetal serum bovine serum (FBS) at 37 °C according to reference.
(§2) 3 × 10^3 cells were seeded in a 96-well plate and were allowed to attach overnight at 37 °C. T98G cells were treated in duplicate or triplicate with different concentrations of the crude/chemically modified extract or pure compounds. The stock solutions were dissolved in DMSO at the final concentration of 160 mg/ml and 5 or 80 mM for the crude/chemically modified extracts and pure compounds, respectively. After 24 h, 100 μL of DMEM supplemented with 10% of FBS and 10% of 3-(4,5-dimethylthiazol-2-yl)-2,5-diphenyltetrazolium bromide (MTT) reagent (5 mg/mL; Sigma) were added to each well, and plates were further incubated for 2 h at 37 °C as described in references,[36]. Then, 100 μL of DMSO:isopropanol (1:1, v/v) were added to each well followed by incubation for a few minutes at room temperature protected from light. Absorbance was analyzed at 570 nm with a reference at 650 nm in an Epoch Microplate Spectrophotometer. Cells incubated with an equivalent DMSO concentration were considered 100% of viability. The equation “log(inhibitor) vs response—variable slope (four parameters) of the GraphPad Prism software was used to calculate the IC50 (half maximal inhibitory concentration) value.
To evaluate the standard treatment, T98G cultures were treated with temozolomide (5 to 1400 μM). After 72 h, the MTT assay was used to determined cell viability and the IC50 value was calculated as describe above.

T98G cells [2] = assay: Temporal susceptibility: MTT viability of dexamethasone-synchronized T98G cells; conditions: for viability at 13.6 µM: Homo sapiens, 24 h, read-out: cell viability
Protocol: T98G cells were seeded at the density of 3 × 10^3 in a 96-well plate and incubated overnight at 37 °C. Cultured cells were synchronized with dexamethasone (100 nM, 1 h at 37 °C) according to reference and then treated with (3) (13.6 μM) or DMSO at different times post-synchronization for 24 h. After incubation, cell viability was measured by MTT assay as described above. Cells incubated with DMSO were considered as 100% of viability.

HEK 293 cells = assay: MTT cell viability assay in non-tumor HEK 293 cells; conditions: for selectivity index: HEK 293 versus T98G
Protocol: as §1, §2

[3] = pure compounds, 24 h, read-out: IC50

| Molecule | IC50 (T98G cells [1]; [3]) [µM] | anti-glioblastoma activity (in words) (T98G cells [1]) | percentage of cell viability (T98G cells [1]; 24 h) | also measured |
| --- | --- | --- | --- | --- |
| Cn1nnc2c(C(N)=O)ncn2c1=O [Temozolomide, reference compound] | – | – | – | IC50 (T98G cells [1]; standard treatment, 72 h, read-out: IC50): 844 µM |
| C=C1C(=O)O[C@H]2C(=C)[C@]3(CCC(=O)O3)[C@@H](C)CC[C@@H]12 [compound 4, (3aS,6S,7S,8aR)-6-methyl-3,8-dimethyleneoctahydro-5'H-spiro[cyclohepta[b]furan-7,2'-furan]-2,5'(3H)-dione] | – | less active | – | IC50 (T98G cells [1]; 24 h, 10 to 160 µg/mL tested, read-out: concentration needed to reduce 50% of cell viability): > 40 µg/mL |
| CC1=C(/C=C/C(=O)O)[C@]2(C)CC[C@@H](C=C2C(=O)O)C1 [compound 1, (1R,5S)-4-((E)-2-carboxyvinyl)-3,5-dimethylbicyclo[3.2.2]nona-3,6-diene-6-carboxylic acid] | – | weak anti-glioblastoma activity | higher than 50% | – |
| COC(=O)/C=C/C1=C(C)C[C@@H]2C=C(C(=O)OC)[C@@]1(C)CC2 [compound 2, Methyl (1R,5S)-4-((E)-3-methoxy-3-oxoprop-1-en-1-yl)-3,5-dimethylbicyclo[3.2.2]nona-3,6-diene-6-carboxylate] | – | weak anti-glioblastoma activity | higher than 50% | – |
| C=C1C(=O)OC2C(=C)C(CCC(=O)OC)C(C)CCC12 (stereo not shown) [compound 5] | – | weak anti-glioblastoma activity | higher than 50% | – |
| Methyl 3-((3aS,6S,7S,8aR)-6-methyl-3,8-dimethylene-2-oxooctahydro-2H-cyclohepta[b]furan-7-yl)propanoate [compound 11] | – | weak anti-glioblastoma activity | higher than 50% | – |

Continued, in another order:

| IC50 (T98G cells [1]; [3]) [µM] | Molecule | anti-glioblastoma activity (in words) (T98G cells [1]) | percentage of cell viability (T98G cells [1]; 24 h) | also measured |
| --- | --- | --- | --- | --- |
| 14.2 | C=C1C(=O)OC2C1CCC(C)C1CCC(=O)OC12C (stereo not shown) [PsiC, psilostachyin C] | – | – | – |
| 13.6 | C=C1C(=O)O[C@H]2C(=C)[C@@]3(CCC(=O)O3)[C@@H](C)CC[C@@H]12 [compound 3, (3aS,6S,7R,8aR)-6-methyl-3,8-dimethyleneoctahydro-5'H-spiro[cyclohepta[b]furan-7,2'-furan]-2,5'(3H)-dione] | most active derivative of the series | – | viability at 13.6 µM (T98G cells [2]; T98G cells treated at 18 and 24 h post synchronization): 45 to 50%; viability at 13.6 µM (T98G cells [2]; non-synchronized T98G cells): ~75%; effect of time post synchronization on cell viability (T98G cells [2]; T98G cells, Kruskal Wallis test): significant effect of time on cell viability; selectivity index (HEK 293 cells): good selectivity index; IC50 (HEK 293 cells; Homo sapiens, HEK293, 24 h, HEK 293 cells, 24 h, MTT): ~39 µM |
| 13.9 | C=C1C(=O)OC2C1CCC(C)=C1CCC(=O)OC12C (stereo not shown) [PsiB, psilostachyin B] | – | – | – |
| 17.4 | C=C1C(=O)O[C@@H]2[C@H]1CC[C@H](C)[C@]1(CCC(=O)O1)[C@@]2(C)O [PsiA, psilostachyin A] | – | – | selectivity index (HEK 293 cells): Only 3 showed a good selectivity index |
